Key:
[1] = Rhesus monkey in vivo evaluation of ALT increases; conditions: serum, FIG. 6
Method: Alanine aminotransferase (ALT) is measured in serum that is harvested from clotted monkey whole blood after centrifugation. A Roche Modular System automated chemistry analyzer measures the enzymatic activity of ALT in the serum by using International Federation of Clinical Chemistry standardized procedures and reagents. The analyzer's computer uses absorbance measurements to calculated ALT activity in the sample as compared to a standard curve. The ALT activity is reported in International Units per Liter (IU/L).

[2] = biological target: T1, serum ApoE (Macaca mulatta, UniProt Q28502); assay: Heparin Sepharose HI-TRAP binding assay; set-up: species or system rhesus monkey; conditions: HI-TRAP binding upon rhesus serum incubation, 2×DPBS conditions
T1 construct: from tissue; host or cells: rhesus monkey serum
T1 sequence (Q28502 19-295): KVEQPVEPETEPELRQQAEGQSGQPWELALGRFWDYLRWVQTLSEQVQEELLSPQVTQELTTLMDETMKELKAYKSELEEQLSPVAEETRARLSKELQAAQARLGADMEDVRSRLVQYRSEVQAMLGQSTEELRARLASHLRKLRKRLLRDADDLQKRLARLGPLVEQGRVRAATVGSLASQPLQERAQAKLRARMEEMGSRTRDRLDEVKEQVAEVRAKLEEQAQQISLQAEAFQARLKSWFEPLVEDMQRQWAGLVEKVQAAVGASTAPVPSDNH
Method: Lipid nanoparticles (LNP) with neutral surface charge are not retained after injection onto heparin sepharose with 1× Dulbecco's phosphate buffered saline (DPBS) as the running buffer but elute in the column void volume. […] Lipid nanoparticles with surface bound ApoE bind to heparin sepharose with high affinity and are eluted only at high salt (1M NaCl).
Lipid nanoparticles were incubated at 37° C. for 20 min at a final siRNA concentration of 50 μg/mL with various concentrations of either purified or recombinant human apolipoprotein E or 0.1-50% rat/mouse/rhesus monkey/human serum in 1× Dulbccco's phosphate buffered saline (DPBS). After incubation with ApoE or serum LNP samples were diluted 10-fold using 1×DPBS and analyzed by heparin sepharose chromatography. Peak area of retained LNP (after subtraction of appropriate blank signals) is compared to total peak area of LNP control without ApoE and/or serum incubation to determine the percentage of the LNP which undergoes shift to high affinity heparin interaction after incubation with ApoE/serum.
A heparin sepharose HI-TRAP™ chromatography column (GE Healthcare; 1 mL bed volume) is equilibrated with either 1× or 2× Dulbecco's PBS; the higher 2× salt concentration is used for LNPs with higher intrinsic retention on heparin sepharose (presumably due to higher positive surface charge). • Mobile Phase A: 1× or 2×DPBS • Mobile Phase B: 1M NaCl in 10 mM sodium phosphate buffer, pH 7.0 • 100% A delivered isocratically for 10 min followed by step gradient to 100% B; hold for additional 10 min; step gradient back to 100% A and reequilibrate for additional 10 min prior to injection of next sample • Flow rate: 1 mL/min • Sample injection volume: 50 μL. • Detection: UV @260 nm HI-TRAP™ Binding Results Upon Rhesus Serum Incubation (2×DPBS Conditions)

[3] = test system: β-catenin mRNA; assay: TRE-MET HCC mouse pharmacodynamic study (β-catenin mRNA by Taqman in liver and tumor); format: in vivo; conditions: intravenous, 72 hours; for knockdown of β-catenin mRNA in both liver and tumor tissues: FIGS. 8, 9, 12, 13
Method: The activity LNPs in delivering a β-catenin siRNA (siRNAβ-cat) to hepatocellular carcinoma was evaluated in a mouse hepatocellular carcinoma (HCC) model, named TRE-MET. TRE-MET mice are transgenic mice in an FVB/N genetic background where the human MET transgene is expressed under an hCMV promoter with hepatamerized upstream tet-operators. When TRE-MET mice are crossed with the LAP-tTA line, the double transgenic (TRE-MET/LAP-tTA) mice express MET in a liver-specific manner which can be suppressed by administration of doxycycline. These mice develop HCC at 3 months of age with visually identifiable tumor nodules on the liver surface and the tumors display a diffuse trabecular growth pattern typical for HCC and express the HCC tumor marker alpha-fetoprotein (AFP). In addition, the mutation analysis in the tumor of TRE-MET mice has also identified activating mutations in the beta-catenin gene in approximately 95% of tumors. These features make the TRE-MET HCC mouse model suitable for evaluating LNP-mediated delivery of β-catenin siRNA and the resultant efficacy on tumor growth.
The effect of β-catenin containing LNPs in silencing β-catenin mRNA in both liver and tumor tissues was first evaluated in a pharmacodynamic (PD) study in TRE-MET mice bearing tumors. Different doses of LNPs or a high dose of LNPcontrol siRNA were intravenously administered and 72 hours later, necropsy was performed to collect liver and tumor tissues for the determination of β-catenin mRNA levels by Taqman. […] The KD in tumors ranges from 70% (2 mpk) to about 40% (0.1 or 0.05 mpk).

CCCCC/C=C\C/C=C\CCCCCCCCCC(CCCCCCCCC)CCN(C)C (centres unmarked) [Compound 32, (13Z,16Z)—N,N-dimethyl-3-nonyldocosa-13,16-dien-1-amine]
peak ALT elevations compared with RDV containing DLinKC2DMA (Compound 45) or MC3 (Compound 46) [1]: lower peak ALT elevations | % Bound [2]: 100% | β-catenin mRNA KD in normal liver ([3]; 0.05 mpk): 78% | β-catenin mRNA KD in normal liver ([3]; 0.1 mpk): 76% | β-catenin mRNA KD in tumors ([3]; 0.1 or 0.05 mpk): 20-30% | β-catenin mRNA KD in tumors ([3]; 0.25 mpk): 47% | knockdown of β-catenin mRNA in both liver and tumor tissues [3]: robust and dose-dependent knockdown

CCCCCCCCCC(CCCCCCCC1CC1CCCCCCCC)N(C)C [Compound 33, N,N-dimethyl-1-[(1S,2R)-2-octylcyclopropyl]hepladecan-8-amine]
peak ALT elevations compared with RDV containing DLinKC2DMA (Compound 45) or MC3 (Compound 46) [1]: lower peak ALT elevations | % Bound [2]: <5% | β-catenin mRNA KD in normal liver ([3]; 0.05 mpk): 69% | β-catenin mRNA KD in normal liver ([3]; 0.1 mpk): 88% | β-catenin mRNA KD in tumors ([3]; 0.1 or 0.05 mpk): about 40% | β-catenin mRNA KD in tumors ([3]; 2 mpk): 70% | knockdown of β-catenin mRNA in both liver and tumor tissues [3]: robust and dose-dependent knockdown

Source: patent US11413348B2, “Low molecular weight cationic lipids for oligonucleotide delivery” (SIRNA THERAPEUTICS, INC., priority 2010, dated 2022)
